Target: glucocorticoid receptor (Homo sapiens (Human), UniProt P04150)
Assay: HepG2 TAT assay: inhibition of dexamethasone-induced tyrosine aminotransferase (TAT) activity
Format: cell-based
Conditions: HepG2 cells, challenge of 100 nM dexamethasone, 18-24 hr; IC50 converted to Ki by Cheng and Prusoff equation
In short: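 Cells lysed 15 min at 4 °C; TAT enzyme reaction 2 h at 37 °C, stopped with KOH, 30 min further at 37 °C. Inhibition fitted to 4-parameter logistic.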

Sequence of glucocorticoid receptor (P04150 whole entry): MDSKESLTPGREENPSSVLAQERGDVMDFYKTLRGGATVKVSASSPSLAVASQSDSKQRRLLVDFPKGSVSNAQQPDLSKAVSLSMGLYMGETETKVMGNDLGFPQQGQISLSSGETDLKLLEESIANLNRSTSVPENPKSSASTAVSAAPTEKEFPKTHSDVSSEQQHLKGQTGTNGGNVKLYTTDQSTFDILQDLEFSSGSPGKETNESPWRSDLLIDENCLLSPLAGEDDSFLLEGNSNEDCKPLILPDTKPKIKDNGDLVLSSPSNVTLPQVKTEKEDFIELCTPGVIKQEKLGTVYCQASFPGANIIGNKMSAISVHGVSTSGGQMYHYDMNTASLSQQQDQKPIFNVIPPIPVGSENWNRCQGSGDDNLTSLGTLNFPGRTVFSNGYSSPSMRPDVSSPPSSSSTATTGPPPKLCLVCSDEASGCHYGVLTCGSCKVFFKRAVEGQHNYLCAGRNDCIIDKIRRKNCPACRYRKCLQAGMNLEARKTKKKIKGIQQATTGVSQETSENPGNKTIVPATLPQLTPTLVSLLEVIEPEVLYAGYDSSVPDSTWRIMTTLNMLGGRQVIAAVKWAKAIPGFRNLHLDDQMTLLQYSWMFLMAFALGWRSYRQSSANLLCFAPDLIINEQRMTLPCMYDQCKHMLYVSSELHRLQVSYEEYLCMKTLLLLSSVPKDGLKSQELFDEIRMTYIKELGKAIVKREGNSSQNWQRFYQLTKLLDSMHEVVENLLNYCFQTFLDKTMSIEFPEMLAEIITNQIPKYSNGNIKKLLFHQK

| Ki [nM] | Compound |
| --- | --- |
| 310 | CO[C@]1(c2ccccc2)C[C@H]2CN(S(=O)(=O)c3cnn(C)c3)C[C@@]2(c2cc3cnn(-c4ccc(F)cc4)c3cc2C)C1 [Example 8, 1-(4-fluorophenyl)-5-((3aS,5R,6aR)-5-methoxy-2-((1-methyl-1H-pyrazol-4-yl)sulfonyl)-5-phenylhexahydrocyclopenta[c]pyrrol-3a(1H)-yl)-6-methyl-1H-indazole] |
| 22 | CCOC(=O)N1C[C@@H]2[C@@H](c3ccccc3)[C@]2(c2cc3cnn(-c4ccc(F)cc4)c3cc2C)C1 (single isomer, unassigned) [Example 122, ethyl 1-(1-(4-fluorophenyl)-6-methyl-1H-indazol-5-yl)-6-phenyl-3-azabicyclo[3.1.0]hexane-3-carboxylate] |
| 41 | CCCn1cc(S(=O)(=O)N2CC3CC(Oc4ccccc4)CC3(c3cc4cnn(-c5ccc(F)cc5)c4cc3C)C2)cn1 (stereo not drawn) [Example 43] |
| 13 | Cc1csc(C(=O)N2C[C@@H]3[C@@H](c4ccccc4)[C@]3(c3cc4cnn(-c5ccc(F)cc5)c4cc3C)C2)n1 (stereo in doubt) [Example 175, (1-(1-(4-fluorophenyl)-6-methyl-1H-indazol-5-yl)-6-phenyl-3-azabicyclo[3.1.0]hexan-3-yl)(4-methylthiazol-2-yl)methanone] |
| 41 | Cc1cc2c(cnn2-c2ccc(F)cc2)cc1[C@@]12CN(C(=O)c3ncnn3C)C[C@@H]1[C@H]2c1ccccc1 (single isomer, unassigned) [Example 170, (1-(1-(4-fluorophenyl)-6-methyl-1H-indazol-5-yl)-6-phenyl-3-azabicyclo[3.1.0]hexan-3-yl)(1-methyl-1H-1,2,4-triazol-5-yl)methanone] |
| 370 | Cc1cc2c(cnn2-c2ccc(F)cc2)cc1C12CC(=O)CC1CN(C(=O)OC(C)(C)C)C2 (stereo not drawn) [Example 1, tert-butyl 3a-(1-(4-fluorophenyl)-6-methyl-1H-indazol-5-yl)-5-oxohexahydrocyclopenta[c]pyrrole-2(1H)-carboxylate] |
| 23 | Cc1cc2c(cnn2-c2ccc(F)cc2)cc1[C@@]12CN(C(=O)c3ccccc3)C[C@@H]1[C@H]2c1ccccc1 (stereo in doubt) [Example 110, (1-(1-(4-fluorophenyl)-6-methyl-1H-indazol-5-yl)-6-phenyl-3-azabicyclo[3.1.0]hexan-3-yl)(phenyl)methanone] |
| 65 | Cc1cc2c(cnn2-c2ccc(F)cc2)cc1[C@@]12CN(S(=O)(=O)C3COC3)C[C@@H]1[C@H]2c1ccccc1 (single isomer, unassigned) [Example 140, 5-(3-(oxetan-3-ylsulfonyl)-6-phenyl-3-azabicyclo[3.1.0]hexan-1-yl)-1-(4-fluorophenyl)-6-methyl-1H-indazole] |

| Compound | Ki [nM] |
| --- | --- |
| CCNC(=O)[C@@H]1[C@H]2CN(S(=O)(=O)c3cnn(C)n3)C[C@]21c1cc2cnn(-c3ccc(F)cc3)c2cc1C [Example 65] | 430 |
